Literature values, collected in patent US6949538B2, “Compounds, compositions, and methods” (Cytokinetics, Inc., priority 2002, dated 2005).

tested on: A549 cells; conditions: data provided by National Cancer Institute, Developmental Therapeutic Program

Row | SMILES | GI50 [nM]
1 | O=c1[nH]cc(F)c(=O)[nH]1 [5-fluorouracil] | 1000
2 | COc1cccc2c1C(=O)c1c(O)c3c(c(O)c1C2=O)C[C@@](O)(C(=O)CO)C[C@@H]3O[C@H]1C[C@H](N)[C@H](O)[C@H](C)O1 [doxorubicin] | 63
3 | NC(=O)NO [hydroxyurea] | 500000
4 | CC(=O)O[C@H]1C(=O)[C@@]2(C)[C@H]([C@H](OC(=O)c3ccccc3)[C@]3(O)C[C@H](OC(=O)[C@H](O)[C@@H](NC(=O)c4ccccc4)c4ccccc4)C(C)=C1C3(C)C)[C@]1(OC(C)=O)CO[C@@H]1C[C@@H]2O [paclitaxel] | 4
